Source: patent US20140275257A1, “N-ACETYL CYSTEINE COMPOSITIONS IN THE TREATMENT OF SYSTEMIC LUPUS ERYTHEMATOSUS” (Foundation for the State University of New York, priority 2013, published 2014)

What was measured:
SLE patients = assay: British Isles Lupus Assessment Group (BILAG) score in NAC pilot study; assay type: in vivo, human; conditions: for BILAG: all patients treated with NAC, baseline 26.2
Procedure: The BILAG index is more comprehensive than the SLEDAI, recording clinical disease activity in 8 different organ systems for a total of 101 items. Each item is measured qualitatively by clinical observation (yes/no, improving/same/worse/new) or quantitatively by measuring hematologic and renal lab values. […] Normally, a total score is not calculated. However, it can be converted into a disease activity scale by assigning points to the alphabetical score: A=9, B=3, C=1, D=0, E=0, with a maximum potential score of 72. (Lam, G. K. W. and Petri, M., “Assessment of systemic lupus erthematosus,” Clin. Exp. Rheumatol., 23 (Supp. 39): S120-S132 (2005)). The classical BILAG index was subsequently updated as the BILAG 2004 index. […] Development and initial validation of an updated version of the British Isles Lupus Assessment Group's disease activity index for patients with systemic lupus erythematosus,” Rheumatology, 44: 902-906 (2005). According to the BILAG 2004 index, all features must be attributable to SLE and refer to the last 4 weeks compared with the previous 4 weeks; in some manifestations, it may be difficult to differentiate SLE from other causes as there may not be any specific test and the decision would then lies with the physician's judgement on the balance of probabilities. The term “improvement” is defined as (a) the amount that is sufficient for consideration of reduction in therapy; and (b) that which is present ≧2 weeks of the previous 4 weeks. Scoring for features is indicated as: (0) not present; (1) Improving; (2) Same; (3) Worse; (4) New.
A complete physical examination of the cardiovascular, respiratory, gastrointestinal, musculoskeletal, neurological systems, skin, head, neck, sinuses, nasal and oral cavities were performed at each visit. SLE disease activity was assessed by using the British Isles Lupus Assessment Group (BILAG) (Isenberg, D. A. et al., “BILAG 2004. Development and initial validation of an updated version of the British Isles Lupus Assessment Group's disease activity index for patients with systemic lupus erythematosus,” Rheumatology 44(7): 902-906 (2005)) and SLE Disease Activity Index (SLEDAI) (Bombardier, C. et al., “Derivation of the SLEDAI. A disease activity index for lupus patients,” Arth. Rheum., 35: 630-640 (1992)). The concurrent use and dosage of prednisone and other medications were documented.
Lupus disease activity was measured by SLEDAI and BILAG and fatigue was evaluated by FAC at baseline (visit 1) as well as monthly during a 3-month intervention (visits 2-4) and after a 1-month washout period (visit 5).
Overall clinical effectiveness of NAC relative to placebo was analyzed with multilevel modeling as implemented in the STATA routine XTMIXED (from StataCorp, College Station, Tex.), with the three nested levels being drug group, subject within drug group and study visit within subject. All models included fixed effects for drug group, study visit and the drug group by study visit interaction along with random intercepts at each design level. […] The reduction in lupus disease activity SLEDAI scores was greater for the NAC than placebo group, as indicated by a significant visit by drug interaction (z=−2.14, p=0.033). The reduction in BILAG scores was also greater for NAC than placebo group. The overall effect was statistically significant as indicated by a significant visit by drug interaction (z=−2.62, p=0.009). Two tailed paired t-test was used to assess the effects of placebo and of each and all NAC doses on clinical indices and biomarkers recorded on visits 2-5 relative to visit 1; p<0.05 was considered significant. Patients and controls were compared with two-tailed unpaired t-test.

mTOR = assay: CD3/CD28 stimulation-induced mTOR activity in normal PBL pretreated with NAC in vitro; assay type: cell-based, human; conditions: pretreatment by NAC in vitro (data not shown)
Excerpt: Δψm is subject to regulation by an oxidation-reduction equilibrium of ROI, pyridine nucleotides (NADH/NAD+NADPH/NADP) and GSH. (Fernandez, D. and Perl, A. “Metabolic control of T cell activation and death in SLE,” Autoimmun. Rev., 8: 184-189 (2009)). Without being bound by theory, it is believed that NAC can modulate mitochondrial hyperpolarization (MHP), directly, via neutralizing ROI or, indirectly, via sparing NADPH and promoting de novo GSH production. […] NAC-induced MHP occurred with a marked increase in NO production, which is required for mitochondrial biogenesis. (Nagy, G. et al., “Nitric Oxide-Dependent Mitochondrial Biogenesis Generates Ca^2+ Signaling Profile of Lupus T Cells,” J. Immunol., 173: 3676-3683 (2004)). In turn, NO production depends on the availability of NADPH. Without being bound by theory, it is believed that increased NO production can result from sparing of NADPH by NAC. (Fernandez, D. and Perl, A. “Metabolic control of T cell activation and death in SLE,” Autoimmun. Rev., 8: 184-189 (2009)). Without being bound by theory, NAC acts by blocking mTOR, which is a sensor of Δψm and oxidative stress in lupus T cells. (Fernandez, D. R. et al., “Activation of mTOR controls the loss of TCRζ □ in lupus T cells through HRES-1/Rab4-regulated lysosomal degradation,” J. Immunol., 182: 2063-2073 (2009)). […]

[1] = system: murine lupus (female NZB×NZW F1 mouse model); conditions: Suwannaroj et al. (2001); cited from earlier work

## CC(=O)N[C@@H](CS)C(=O)O [NAC, N-acetyl-L-cysteine]
SLE patients; NAC dose 1 (1.2 g/day)
  effect on SLE disease activity, BILAG: did not influence
SLE patients; NAC dose 2 (2.4 g/day) and dose 3 (4.8 g/day), after 1 month (p=0.029) and 3 months (p=0.0009)
  effect on BILAG: reduced
SLE patients; NAC dosing group 3 (4.8 g/day), XTMIXED z=−2.19, p=0.029
  effect on BILAG (mixed model analysis): significant reduction
SLE patients; NAC groups, visit by drug interaction, XTMIXED z=−2.62, p=0.009
  reduction in BILAG relative to placebo (mixed model analysis): greater
SLE patients; after 3-month NAC treatment with dose 3, XTMIXED z=−2.0, p=0.046
  swollen joint count (BILAG component): reduced
SLE patients; after 3-month NAC treatment, all doses combined, XTMIXED z=−2.2, p=0.028
  swollen joint count (BILAG component): reduced
SLE patients; after 1 month (visit 2), p=0.0158
  BILAG: 22.3
SLE patients; after 2 months (visit 3), p=0.0223
  BILAG: 22.2
mTOR
  CD3/CD28 stimulation-induced mTOR activity: blocking
[1]
  outcome of murine lupus in vivo: improves the outcome
